Experiments:
[1] = Stability in water, GSH and MTT condition by UV-vis spectroscopy; format: physicochemical
Method: The stability of compounds in water, GSH, and MTT condition (10% DMSO in PBS buffer) was studied. Water is a key factor because it widens the application in the biological field. […] The stability of complex 7e in water (pH 7.2) and GSH were investigated by UV-vis spectroscopy over a period of 20 h of time (Fig. S2a and b ^†).

CT-DNA = assay: UV-visible absorption titration with CT-DNA; format: binding
Method: DNA is one of the key target for cancer therapy. The drug molecules bind with the DNA by three major modes (i) electrostatic interactions with the DNA double helix (ii) binding to grooves of DNA (iii) intercalation between the base pairs of DNA.[25] The titration in UV was performed by increasing concentration of DNA from 10–60 μM into a fixed drug concentration (20 μM). The intra-ligand absorption bands around 290–350 nm (π–π* transition) were used in observation of the interaction of DNA and compound 7e (Fig. S3a ^†). […] Ethidium bromide, a nonspecific intercalator, gives a strong fluorescence while intercalating DNA base pairs. This enhanced fluorescence can be quenched by another chemical moiety which can competitively replace EtBr and binds to the same site.[27] […] The original fluorescence intensity of EtBr–DNA complex is rapidly quenched by increasing the concentration of compound 7e (Fig. S3c ^†). […]
Then the 96 well plate was placed on the shaker for 10 min and subsequently the absorbance was recorded by the ELISA reader at λ = 490 nm. […] The data were expressed as the growth inhibition percentage calculated according to the equation: % growth inhibition = 100 − [(AD × 100)/AB], where AD is the absorbance measured for sample and AB is the absorbance measured for blank wells (cells with a […]
with DNA. The absorbance of the complex was measured after each succeeding addition of […]

[2] = Metabolic stability in mouse liver microsomes; format: in vitro ADME; settings: for % Metabolism in 30 min: 0.5 μM, 0.5 mg ml^−1 protein, NADPH, 37 °C; for half-life at 0.5 μM: mouse, liver microsomes
Method: (§1) The in vitro metabolic rate of 7g was determined in liver microsomes and the intrinsic clearance (CLintr) was estimated. The study was conducted at 0.5 μM substrate concentration and microsomal protein concentration of 0.5 mg ml^−1. Metabolic stability study in the presence of microsomes and cofactor NADPH was performed at 37 °C, 60 rpm for 30 min time duration. NADPH free control incubation was performed simultaneously for 30 min to understand if there are any non-enzymatic metabolism related issues. […] Intrinsic clearance as given in Table 6, was calculated using eqn (8). ^†

[3] = Biopharmaceutical classification (BCS / BDDCS); settings: primarily classified
[4] = Buffer solubility (LC-MS/MS); format: physicochemical; settings: aqueous buffer, kinetic from dmso stock; pH 7.4 buffer, 2 h incubation
Method: LC-MS/MS methods were developed for compound 7g to quantify the drug concentration and in vitro study (i.e. buffer solubility, buffer stability, metabolic stability, and permeability) in a systemic manner (Table 4). Chromatographic elution conditions were set with the use of 5 mM ammonium formate containing 0.1% formic acid and acetonitrile containing 0.1% formic acid with C8, Kromasil, and 4.6 × […] as a stationary phase (Fig. S5a and b ^†). […] For the data analysis, % accuracy of compound 7g was calculated and it was soluble up to 25 μM (Fig. 3, eqn (7) ^†).
The in vitro solubility and stability of 7g were evaluated in pH 7.4 buffer. The buffer solubility and stability studies were conducted at six different concentrations ranging from 3.13 to 100 μM. For the data analysis, % stability of compound 7g at 120 min was calculated with respect to 0 min time point samples and it was stable up to 2 hours in pH 7.4 buffers. Data analysis was performed through the eqn (8) ^† and was tabulated (Table 4). Compound 7g found to be stable up to 2 hours with % remaining of 71% in pH 7.4.

[5] = Metabolic stability in rat liver microsomes; format: in vitro ADME; settings: for % Metabolism in 30 min: 0.5 μM, 0.5 mg ml^−1 protein, NADPH, 37 °C; for half-life at 0.5 μM: rat, liver microsomes
Method: as §1

CLint ([2]; MLM set 1) | % Metabolism in 30 min ([2]; MLM set 1) | CLint ([2]; MLM set 2) | % Metabolism in 30 min ([2]; MLM set 2) | half-life at 0.5 μM ([2]; MLM set 1) | half-life at 0.5 μM ([2]; MLM set 2) | BCS class [3] | BDDCS class [3] | solubility at 2 h [4] | CLint ([5]; RLM set 1) | % Metabolism in 30 min ([5]; RLM set 1) | CLint ([5]; RLM set 2) | % Metabolism in 30 min ([5]; RLM set 2) | half-life at 0.5 μM ([5]; RLM set 1) | half-life at 0.5 μM ([5]; RLM set 2) | Structure (SMILES) | stability in MTT condition ([1]; 10% DMSO in PBS buffer, 18 h) | stability in GSH ([1]; GSH, 20 h) | stability in water ([1]; water pH 7.2, 20 h) | K b, intrinsic DNA binding constant (CT-DNA; UV-visible absorption titration, 7e 20 μM, DNA 10–60 μM) | % Hypochromism (CT-DNA; UV-visible titration with CT-DNA)
– | – | – | – | – | – | – | – | – | – | – | – | – | – | – | Clc1cc2nc(COc3ccccc3-c3nc4ccccc4s3)c(COc3ccccc3-c3nc4ccccc4s3)nc2cc1Cl [Compound 7e] | insignificant change of absorbance | no changes in absorbance | no changes in absorbance | 6900 M⁻¹ | 50%
13 μl per min per mg protein | 12% | 28 μl per min per mg protein | 37% | 1.83 h | 0.818 h | BCS class 4 | BDDCS class 4 | ≤ 25 µM | 4 μl per min per mg protein | 12% | 14 μl per min per mg protein | 19% | 5.85 h | 1.69 h | COc1ccc2nc(COc3ccccc3-c3nc4ccccc4s3)c(COc3ccccc3-c3nc4ccccc4s3)nc2c1 [Compound 7g, 2,2'-((((6-methoxyquinoxaline-2,3-diyl)bis(methylene))bis(oxy))bis(2,1-phenylene))bis(benzo[d]thiazole)] | – | – | – | – | –

Source: article PMC9061853, “Luminescent bis(benzo[d]thiazolyl)quinoxaline: facile synthesis, nucleic acid and protein BSA interaction, live-cell imaging, biopharmaceutical research and cancer theranostic application” (RSC Advances, 2019)
